Measured values reported in patent publication US20050272035A1, “Functional screening method” (priority 2002, published 2005).

What was measured:
[1] = system: ATF1 (activating transcription factor 1); experiment: Nuclear trafficking (N/C ratio) of ATF1-EGFP indicator in transiently transfected HeLa cells; assay type: cell-based; conditions: 1 μM, 5 minutes, scatterplot FIG. 9
Method: Expression vectors encoding cDNA-EGFP indicators were transiently transfected into HeLa cells growing in wells of 96 well microtitre plates by chemically mediated transfection (Fugene, Roche) and cells incubated under standard growth conditions for 24 hours to permit synthesis of indicator fusion proteins. Cells were subsequently stained with DRAQ 5, a cell permeable nuclear DNA binding dye (Biostatus), to fluorescently mark cell nuclei, and all wells imaged with dual laser excitation (EGFP 488 nm, DRAQ 5 633 nm) using an IN Cell Analyzer (Amersham Biosciences). Data for green (EGFP) and red (DRAQ 5) fluorescence were collected for all cells (FIG. 6) and used to determine thresholds for data separation of transfected cells (EGFP fluorescence above threshold) from non-transfected cells (EGFP fluorescence below threshold).
Indicator proteins derived from a range of cDNAs as described for Example 1 were transfected into HeLa cells and allowed to express for 24 hours. Following expression, cells were transferred into serum-free media for 2 hours to allow effects of stimuli from serum factors such as cortisol to decay. […] This algorithm allows the spatial distribution of cDNA-EGFP fusion proteins to be quantitated in expressing cells: a low N/C ratio indicating a cytoplasmic location for the indicator protein, a high N/C ration indicating a nuclear location. […]

[2] = system: Cyt-C (EGFP-Cytochrome C); experiment: Granularity and Membrane Spot image analysis of EGFP-Cytochrome C indicator in HeLa cells; assay type: cell-based; conditions: staurosporine treated HeLa cells, FIG. 10 inset
Text: A further group of indicator proteins were transfected into HeLa cells and cells imaged before and after exposure to staurosporine as described in Example 2. […] These algorithms return results which quantitate fluorescence in degrees of granularity (i.e. low value indicates uniform distribution, high value indicates punctate distribution) and in terms of membrane localisation.

CN[C@@H]1C[C@H]2O[C@@](C)([C@@H]1OC)n1c3ccccc3c3c4c(c5c6ccccc6n2c5c31)C(=O)NC4 [staurosporine]
response of ATF1 indicator N/C ratio to modulator [1]: specific and differential responses | ratio of outputs of Granularity and Membrane Spot algorithms for Cyt-C indicator [2]: highest differential return from the two algorithms
